Assay results from US20120177681A1, “Formulation of immunopotentiators” (priority 2010, published 2012).
Like-named read-outs stand apart in the source and are kept apart here.

Legend:
[1] = type: physicochemical; settings: SDS-PAGE of supernatants
Water solubility = type: physicochemical; settings: read-out: water-soluble at
[2] = Model of in vivo desorption from Al—H; type: in vitro ADME; settings: 37° C.
[3] = Muscle levels 24 hours after intramuscular injection; type: in vivo, Balb/C mice; settings: for detection in muscle 24 hours after intramuscular injection / concentration at 24 h: 100 μg; for concentration at 24 h: Balb/C, mouse, muscle, intramuscular, 100 μg i.m.
[4] = Systemic serum exposure after intramuscular injection; type: in vivo, Balb/C mice; settings: Balb/C, mouse; for AUC: im, 100 μg i.m.; for Cmax: intramuscular, 100 μg
human TLR7 = target: T1, human TLR7 (Homo sapiens, UniProt Q9NYK1); assay: HEK293 human TLR7 NF-κB luciferase reporter assay; type: cell-based; settings: HEK293 cells
T1 construct: expressed in transfected cells; host or cells: HEK293
T1 sequence (Q9NYK1 27-1049): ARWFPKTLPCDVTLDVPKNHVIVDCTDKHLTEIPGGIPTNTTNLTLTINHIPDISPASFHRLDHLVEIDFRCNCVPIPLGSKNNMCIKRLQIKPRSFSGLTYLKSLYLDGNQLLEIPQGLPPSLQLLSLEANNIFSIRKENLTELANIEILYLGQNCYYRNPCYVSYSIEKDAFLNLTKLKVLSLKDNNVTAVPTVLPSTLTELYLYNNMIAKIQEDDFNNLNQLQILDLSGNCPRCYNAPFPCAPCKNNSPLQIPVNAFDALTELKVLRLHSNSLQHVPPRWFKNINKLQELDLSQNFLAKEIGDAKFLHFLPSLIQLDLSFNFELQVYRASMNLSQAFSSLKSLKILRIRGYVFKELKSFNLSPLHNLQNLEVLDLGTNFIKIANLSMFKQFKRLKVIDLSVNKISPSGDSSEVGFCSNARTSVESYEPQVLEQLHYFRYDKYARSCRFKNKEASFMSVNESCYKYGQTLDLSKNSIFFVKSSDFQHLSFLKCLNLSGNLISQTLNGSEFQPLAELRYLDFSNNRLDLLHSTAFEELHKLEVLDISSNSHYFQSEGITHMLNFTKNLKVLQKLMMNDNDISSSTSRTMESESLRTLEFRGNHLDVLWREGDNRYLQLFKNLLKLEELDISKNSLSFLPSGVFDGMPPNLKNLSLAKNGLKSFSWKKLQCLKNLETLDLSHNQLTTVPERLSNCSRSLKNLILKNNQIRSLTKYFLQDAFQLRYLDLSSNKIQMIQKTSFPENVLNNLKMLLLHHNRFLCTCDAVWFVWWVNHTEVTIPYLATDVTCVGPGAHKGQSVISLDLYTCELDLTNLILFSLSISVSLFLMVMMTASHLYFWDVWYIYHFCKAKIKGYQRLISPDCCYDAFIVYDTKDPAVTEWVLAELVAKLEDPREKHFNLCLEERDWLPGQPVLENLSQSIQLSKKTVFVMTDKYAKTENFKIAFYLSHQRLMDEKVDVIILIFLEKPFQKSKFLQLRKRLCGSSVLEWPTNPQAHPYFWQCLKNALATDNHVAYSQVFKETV
Procedure: The activity of this compound is assessed in an assay using HEK293 cells which are stably transfected with human TLR7 and an NF-κB-driven luciferase reporter vector (pNifty-Luciferase). As a control assay, normal HEK293 transfected with pNifty-Luc are used. Cells are cultured in DMEM supplemented with 2 mM L-glutamine, 10% heart inactivated FBS, 1% penicillin and streptomycin, 2 μg/ml puromycin and 5 μg/ml of blasticidin. Bright-Glo™ Luciferase assay buffer and substrate are supplied by Promega. Cells are plated at 25,000 cells/well in 384-well plates in a final volume of 50 μl of media. Cells are allowed to adhere to the plates after overnight (18 hours) culture at 37° C. and 5% CO2. Serially-diluted experimental and positive control compounds are then dispensed to each well and incubated for 7 hours at 37° C. and 5% CO2. Cells stimulated with DMSO alone serve as negative controls. After the incubation, 30 μl of the pre-mix assay buffer and substrate buffer are added to each well according to manufacturer's instructions. The luminescence signal is read on a CLIPR machine with an integration time of 20 seconds per plate.

[5] = Solubility in histidine buffer at pH 6.8; type: physicochemical
[6] = Desorption from Al—H by phosphate / buffer anions; type: physicochemical; settings: KH2PO4 0.5M final, pH 9, overnight at 37° C.
[7] = system: serogroup B meningococcus; type: in vivo, CD-1 mice; settings: 5CVMB at days 0 & 14 with (b) the agonist compound
serum cytokines = assay: Serum cytokines after administration; settings: in vivo
[8] = Confocal microscopy / flow cytometry of association with Al—H; type: physicochemical; settings: in the presence of Al—H
[9] = Adsorption to aluminium hydroxide (Al—H), HPLC of supernatant; type: physicochemical; settings: parent compound, in words
[10] = SIF (simulated interstitial fluid)
[11] = 100 ug, compound alone, 24 hours
[12] = +Al—H (adsorbed), read-out: Levels of compound in muscle 24 hours after injection
[13] = 100 ug, TLR2 agonists, compound alone
[14] = TLR2 agonists, +Al—H (adsorbed)

Row | Compound | solubility (Water solubility) [µg/mL] | detection in muscle 24 hours after intramuscular injection ([3]; injected with Al—H) | detection in muscle 24 hours after intramuscular injection ([3]; without Al—H (free form)) | Cmax ([4]; +Al—H (adsorbed)) [nM] | Cmax ([4]; compound alone) [nM] | EC50 (human TLR7) [µM] | concentration at 24 h [3, 12] [nM] | concentration at 24 h ([3]; compound alone) [nM] | further results
1 | Cc1cc(OCCCC(F)(F)P(=O)(O)O)ccc1CCc1cnc2c(N)nc3cc(CCC(=O)O)ccc3c2c1 [Compound 3] | > 1000 | readily detected | undetectable |  |  |  |  |  | adsorption of MenB antigens to Al—H after pre-adsorption of compound [1]: completely adsorbed; proportion desorbed after 5 hours ([2]; His buff): 5%; proportion desorbed after 5 hours ([2]; Plasma/His buff): 49%; proportion desorbed after 5 hours [2, 10]: 100%
2 | Cc1cc(OCCOCCOCCC(F)(F)P(=O)(O)O)ccc1CCc1cnc2c(N)nc3cc(CCC(=O)O)ccc3c2c1 [Compound 4] | > 1000 | readily detected | undetectable |  |  |  |  |  | adsorption of MenB antigens to Al—H after pre-adsorption of compound [1]: completely adsorbed; proportion desorbed after 5 hours ([2]; His buff): 4%; proportion desorbed after 5 hours ([2]; Plasma/His buff): 81%; proportion desorbed after 5 hours [2, 10]: 100%
3 | COCCOc1nc(N)c2nc(O)n(Cc3ccc(CP(=O)(O)O)cc3)c2n1 [Compound 6, (4-((6-amino-2-(2-methoxyethoxy)-8-oxo-7H-purin-9(8H)-yl)methyl)benzyl)phosphonic acid] | > 1000 |  | undetectable | 5520 | 6120 | 0.41 | 2770 | 0 | AUC [4, 11]: 7.18 µM·h; AUC ([4]; +Al—H (adsorbed), 24 hours): 13.4 µM·h; detection in inguinal lymph nodes or in liver ([3]; after 24 hours): could not be detected
4 | CCOCc1nc2c(N)nc3ccccc3c2n1CCOCCP(=O)(O)O [Compound 7] |  |  |  |  |  | 66 |  |  | 
5 | CCCCCNc1nc(N)nc(C)c1Cc1ccc(CP(=O)(O)O)cc1OC [Compound 8] |  |  |  |  |  | 7.3 |  |  | 
6 | Cc1ccc2c(c1)nc(N)c1ncc(CCc3ccc(OCCCP(=O)(O)O)cc3C)cc12 [Compound 13] |  |  |  |  |  |  |  |  | solubility in histidine buffer [5]: poorly soluble; compound in supernatant after KH2PO4 treatment (displacement / desorption) [6]: Increased quantities; proportion desorbed after 5 hours ([2]; His buff): 2%; proportion desorbed after 5 hours ([2]; Plasma/His buff): 9%; proportion desorbed after 5 hours [2, 10]: 4%
7 | CCCCCCCCCCCC(=O)OC[C@H](CSC[C@H](N)C(=O)NC1(COCCCP(=O)(O)O)CC1)OC(=O)CCCCCCCCCCC [Compound 22, (3-((1-((R)-2-amino-3-(((R)-2,3-bis(dodecanoyloxy)propyl)thio)propanamido)cyclopropyl)methoxy)propyl)phosphonic acid] |  |  |  |  |  |  | 25300 | 0 | 
8 | COCCOc1cc2c(nc(O)n2Cc2ccc(CP(=O)(O)O)cc2)c(N)n1 [Compound 67, (4-((4-amino-6-(2-methoxyethoxy)-2-oxo-2,3-dihydro-1H-imidazo[4,5-c]pyridin-1-yl)methyl)benzyl)phosphonic acid] | > 1000 | readily detected | undetectable | 4510 | 4060 | 6.5 | 2880 | 0 | AUC [4, 11]: 3.57 µM·h; AUC ([4]; +Al—H (adsorbed), 24 hours): 8.11 µM·h; SBA titers at day 28 [7]: 64; effect of adsorption to Al—H on systemic cytokines (serum cytokines): generally reduced or unaffected
9 | CCOCc1nc2c(N)nc3ccccc3c2n1CCOCCOCCOCCP(=O)(O)O [Compound 68, (2-(2-(2-(2-(4-amino-2-(ethoxymethyl)-1H-imidazo[4,5-c]quinolin-1-yl)ethoxy)ethoxy)ethoxy)ethyl)phosphonic acid] | > 1000 | readily detected | undetectable | 1720 | 2120 | 28 | 502 | 0 | AUC [4, 11]: 1.39 µM·h; AUC ([4]; +Al—H (adsorbed), 24 hours): 2.76 µM·h; effect of adsorption to Al—H on systemic cytokines (serum cytokines): generally reduced or unaffected
10 | CCCCCNc1nc(N)nc(C)c1Cc1ccc(CP(=O)(O)O)cc1 [Compound 69] |  |  |  |  |  | 47.4 |  |  | 
11 | CCCCCNc1nc(N)nc(C)c1Cc1ccc(OCCOCCC(F)(F)P(=O)(O)O)cc1OC [Compound 71, (3-(2-(4-((2-amino-4-methyl-6-(pentylamino)pyrimidin-5-yl)methyl)-3-methoxyphenoxy)ethoxy)-1,1-difluoropropyl)phosphonic acid] | > 1000 | readily detected | undetectable | 1810 | 2600 | 2.7 | 924 | 0 | AUC [4, 11]: 2.09 µM·h; AUC ([4]; +Al—H (adsorbed), 24 hours): 4.22 µM·h; SBA titers at day 28 [7]: 65; effect of adsorption to Al—H on systemic cytokines (serum cytokines): generally reduced or unaffected
12 | CCCCCCCCCCCC(=O)OC[C@H](CSC[C@H](N)C(=O)NCCOCCOCCOCCP(=O)(O)O)OC(=O)CCCCCCCCCCC [Compound 72, ((14R,18R)-14-amino-18-(dodecanoyloxy)-13,21-dioxo-3,6,9,20-tetraoxa-16-thia-12-azadotriacontyl)phosphonic acid] |  |  |  |  |  |  | 14500 | 0 | 
13 | CCCCCCCCCCCCOC[C@H](CSC[C@H](N)C(=O)NCCOCCOCCOCCP(=O)(O)O)OCCCCCCCCCCCC [Compound 74, ((14R,18R)-14-amino-18-(dodecyloxy)-13-oxo-3,6,9,20-tetraoxa-16-thia-12-azadotriacontyl)phosphonic acid] |  |  |  | 317 | 1940 |  | 49000 | 27800 | AUC [4, 13]: 37.4 µM·h; AUC [4, 14]: 3.39 µM·h
14 | CCCCCCCCCCCCOC[C@H](CSC[C@H](N)C(=O)NCCOCCOCCOCCP(=O)(O)O)NC(=O)CCCCCCCCCCC [Compound 80, ((14R,18R)-14-amino-18-dodecanamido-13-oxo-3,6,9,20-tetraoxa-16-thia-12-azadotriacontyl)phosphonic acid] |  |  |  | 180 | 2820 |  | 47200 | 5070 | AUC [4, 13]: 20.7 µM·h; AUC [4, 14]: 7.26 µM·h
15 | Cc1ccc(CCc2cnc3c(N)nc4cc(C)ccc4c3c2)c(C)c1 [compound O] |  |  |  |  |  |  |  |  | co-localisation with Al—H (flow cytometry) [8]: separate population; adsorption to the Al—H adjuvant [9]: fails to adsorb
